US7001746B1, “Methods and compositions for the differentiation of human preadipocytes into adipocytes” (Artecel Sciences, Inc., priority 1999, dated 2006)

Experiments:
[1] = tested on: human preadipocytes; conditions: 1 μM BRL49653
Description: The following procedure was used to determine the amount of lipid that had accumulated in the adipocytes. 120 μl/well of medium was removed from each well of the 96-well plates. Care was taken to prevent drying of the wells. 100 μl/well fixer solution (7% formaldehyde in PBS) was added and the plate was incubated at room temperature for at lease 2 hours. Oil Red O working solution was prepared by adding 4 ml distilled water to 6 ml Oil Red O stock solution (1% Oil Red O in isopropanol). The working solution was incubated for 20 minutes at room temperature and then filtered through Nalgene 0.8 μm filter wear. All of the fixer was removed by aspiration until wells were completely dry.
The cells were then incubated with 40 μl/well Oil Red O working solution at room temperature for 10-15 minutes. Care was taken not to touch the sides of the wells in order to prevent high background due to dye stuck on the wall of the well. The plate was covered during incubation to prevent evaporation. Following this incubation, all of the Oil Red O solution was removed and the cells were washed four times with 200 μl/well distilled water. […]
(§1) Isopropanol (100 μl/well) was then added and the plate was incubated at room temperature for 10 minutes. […] The optical density was measured at 500 nm. […]

[2] = tested on: human preadipocytes; experiment: Differentiation of human preadipocytes to adipocytes, Oil Red O staining (Example 2); assay type: cell-based; conditions: Adipocyte, in differentiation medium, read-out: concentration that allows for half maximal stimulation of differentiation
Description: Preadipocytes from the stroma-vascular fraction were resuspended in preadipocyte medium (DME-Ham's F-10, 1:1 (v/v), 10% FBS, and penicillin-streptomycin-fungizone) and plated at 25,000 cells/well in each of the wells of a 96 well plate (150 μl/well). The cells were then placed in a 37° C. 5% CO2 incubator and allowed to settle overnight. The following day, all of the medium was removed and replaced with 150 μl differentiation medium (Dulbecco's Modified Eagle Medium/Ham's F-10 Nutrient Broth (1:1, vol/vol), 15 mM HEPES buffer, pH 7.4, 33 μM biotin, 17 μM pantothenate, 0.2 mM isobutylmethylxanthine, 100 nM insulin, 1 μM dexamethasone, 1 μM BRL 49653 (diluted into medium from a 100× DMSO stock solution), 10% (vol/vol) fetal bovine serum, 60 U/l streptomycin, 60 U/l penicillin and 25 μg/l Fungizone). The cells were maintained on differentiation medium for 3 days. Additional differentiation medium was added as necessary to maintain the proper volume.
120 μl of the medium was removed, taking care to leave a 30 μl layer over the cell surface to prevent the maturing adipocytes from lifting off of the plate surface due to the surface tension created by removal of all the fluid. […]
as §1

[3] = tested on: differentiated adipocytes; experiment: Lipolysis in differentiated human adipocytes, glycerol release (Example 5); assay type: cell-based; conditions: increasing concentrations, 4 hours, adipocytes from five patients; FIG. 6
Description: Preadipocytes from 5 individual patients were isolated and differentiated into adipocytes as described herein. A 96-well plate of adipocytes differentiated by the method in Example 1 was prepared. After 21 days from plating, the cells were washed in Krebs-Ringer buffer and treated with increasing concentrations of isoproterenol. The positive and negative controls (0.5 μM isoproterenol in KRB and KRB alone, respectively) were added in duplicate. The plates were then incubated at 37° C. for four hours.
When lipolytic agents stimulate adipocytes, triglycerides are converted to glycerol and fatty acids. Lipolytic rate was measured in this example by measuring the glycerol released in the medium. At the end of the incubation time, conditioned medium (100 μl) from each well was transferred into a new plate. Glycerol standards (1 mM, 0.5 mM, 0.25 mM, 0.1 mM, 0.05 mM, 0.025 mM, 0 mM) were included.
Glycerol assay reagent (100 μl; Sigma glycerol assay kit) was added to each well. The solutions were mixed well and incubated at room temperature for 15 minutes and then the optical density of each well was read at 540 nm.

Structure (SMILES)	differentiation [1]	EC50 [2]	stimulation of lipolysis (glycerol release) [3]
CN(CCOc1ccc(CC2SC(=O)NC2=O)cc1)c1ccccn1 (stereo not drawn) [BRL49653]	100%	50 nM	
CC(C)NCC(O)c1ccc(O)c(O)c1 (stereo not drawn) [isoproterenol]			dose-dependently stimulate lipolysis
